Data from patent US8895761B2, “4-phenylpyrane-3,5-diones, 4-phenylthiopyrane-3,5-diones and 2-phenylcyclohexane-1,3,5-triones as herbicides” (Syngenta Limited, priority 2007, dated 2014).

Assays:
Format in all cases: in vivo
[1] = tested on: Lolium perenne (LOLPE); assay: Pre-emergence herbicidal glasshouse test, Lolium perenne; settings: 312 h, rate 250 g/ha, evaluated after 13 days, scale 100 = total damage to plant, 0 = no damage
Protocol: (§1) Seeds of a variety of test species were sown in standard soil in pots. After cultivation for one day (pre-emergence) or after 8 days cultivation (post-emergence) under controlled conditions in a glasshouse (at 24/16° C., day/night; 14 hours light; 65% humidity), the plants were sprayed with an aqueous spray solution derived from the formulation of the technical active ingredient in acetone/water (50:50) solution containing 0.5% Tween 20 (polyoxyethelyene sorbitan monolaurate, CAS RN 9005-64-5). The test plants were then grown in a glasshouse under controlled conditions in a glasshouse (at 24/16° C., day/night; 14 hours light; 65% humidity) and watered twice daily. After 13 days for pre and post-emergence, the test was evaluated ([…] to plant; 0=no damage to plant).
(§2) Setaria faberi (SETFA), Lolium perenne (LOLPE), Alopecurus myosuroides (ALOMY), Echinochloa crus-galli (ECHCG) and Avena fatua (AVEFA).

[2] = tested on: Alopecurus myosuroides (ALOMY); assay: Pre-emergence herbicidal glasshouse test, Alopecurus myosuroides; settings: Alopecurus myosuroides, 312 h, rate 250 g/ha, evaluated after 13 days, scale 100 = total damage to plant, 0 = no damage
Protocol: as §1, §2

[3] = tested on: Echinochloa crus-galli (ECHCG); assay: Pre-emergence herbicidal glasshouse test, Echinochloa crus-galli; settings: Echinochloa crus-galli, 312 h, rate 250 g/ha, evaluated after 13 days, scale 100 = total damage to plant, 0 = no damage
Protocol: as §1, §2

[4] = tested on: Avena fatua (AVEFA); assay: Pre-emergence herbicidal glasshouse test, Avena fatua; settings: Avena fatua, 312 h, rate 250 g/ha, evaluated after 13 days, scale 100 = total damage to plant, 0 = no damage
Protocol: as §1, §2

[5] = tested on: Lolium perenne (LOLPE); assay: Post-emergence herbicidal glasshouse test, Lolium perenne; settings: 312 h, rate 250 g/ha, evaluated after 13 days, scale 100 = total damage to plant, 0 = no damage
Protocol: as §1, §2

[6] = tested on: Alopecurus myosuroides (ALOMY); assay: Post-emergence herbicidal glasshouse test, Alopecurus myosuroides; settings: Alopecurus myosuroides, 312 h, rate 250 g/ha, evaluated after 13 days, scale 100 = total damage to plant, 0 = no damage
Protocol: as §1, §2

[7] = tested on: Echinochloa crus-galli (ECHCG); assay: Post-emergence herbicidal glasshouse test, Echinochloa crus-galli; settings: Echinochloa crus-galli, 312 h, rate 250 g/ha, evaluated after 13 days, scale 100 = total damage to plant, 0 = no damage
Protocol: as §1, §2

[8] = tested on: Avena fatua (AVEFA); assay: Post-emergence herbicidal glasshouse test, Avena fatua; settings: Avena fatua, 312 h, rate 250 g/ha, evaluated after 13 days, scale 100 = total damage to plant, 0 = no damage
Protocol: as §1, §2

Compound	pest or weed control at 250 g/ha [1] [%]	pest or weed control at 250 g/ha [2] [%]	pest or weed control at 250 g/ha [3] [%]	pest or weed control at 250 g/ha [4] [%]	pest or weed control at 250 g/ha [5] [%]	pest or weed control at 250 g/ha [6] [%]	pest or weed control at 250 g/ha [7] [%]	pest or weed control at 250 g/ha [8] [%]
CCc1cc(-c2ccc(F)cc2)ccc1C1=C(O)C(C)OC(C)(C)C1=O (stereo not drawn) [Compound A-105]	40	40	20	0	90	80	90	30
CCc1cc(-c2ccc(Cl)cc2F)ccc1C1=C(O)[C@@]2(C)CC[C@H](O2)C1=O (racemic) [Compound A-14]	80	50	80	50	100	80	100	100
CCc1cc(-c2ccc(Cl)cn2)ccc1C1=C(O)C(C)(C)OC(C)(C)C1=O [Compound A-43]	50	20	70	30	80	80	100	70
CCc1cc(-c2ccc(C)cc2)ccc1C1=C(O)C(C)(C)OC(C)(C)C1=O [Compound A-73]	0	0	0	0	60	30	80	0
CCc1cc(-c2ccc(F)cc2)ccc1C1=C(O)C2(CCCC2)OC(C)(C)C1=O [Compound A-103]	20	20	20	0	60	60	90	10
CCc1cc(-c2cc(F)c(F)cc2F)ccc1C1=C(O)C(C)(C)C(=O)C(C)(C)C1=O [Compound C-7]	20	30	0	0	60	40	40	10
CCc1cc(-c2cc(F)c(F)c(F)c2)ccc1C1=C(O)C(C)(CC)OC(C)(C)C1=O (stereo not drawn) [Compound A-120]	90	60	70	40	100	100	100	100
CCc1cc(-c2ccc(Cl)c(Cl)c2)ccc1C1=C(O)C(C)(C)OC(C)(C)C1=O [Compound A-38]	70	0	50	0	70	80	80	50
CCc1cc(-c2ccc(Cl)cc2Cl)ccc1C1=C(O)C(C)(C)OC(C)(C)C1=O [Compound A-36]	0	0	0	0	40	30	60	20
Cc1cc(-c2ccc(Cl)cc2F)cc(C)c1C1=C(O)[C@@]2(C)CC[C@H](O2)C1=O (racemic) [Compound A-53]	90	50	100	60	100	90	100	80
CCc1cc(-c2ccc(F)c(F)c2)ccc1C1=C(O)C(C)(C)SC(C)(C)C1=O [Compound B-5]	30	50	0	20	60	70	60	70
CCc1cc(-c2cc(F)c(F)c(F)c2)ccc1C1=C(O)C(C)(CC)OC(C)(CC)C1=O (stereo not drawn) [Compound A-130]	60	50	40	10	60	90	90	70
CCc1cc(-c2ccc(F)c(OC)c2)ccc1C1=C(O)C(C)(C)SC(C)(C)C1=O [Compound B-4]	0	0	0	0	50	40	60	80
CCc1cc(-c2ccc(Cl)cc2)ccc1C1=C(O)C(C)(C)OC(C)(C)C1=O [Compound A-35]	80	50	90	40	90	100	100	80
CCc1cc(-c2ccc(F)c(OC)c2)ccc1C1=C(O)C(C)(C)S(=O)(=O)C(C)(C)C1=O [Compound B-16]	40	20	40	30	60	50	80	80
CCc1cc(-c2c(F)cc(F)cc2F)ccc1C1=C(O)C(C)(COC)OC(C)(C)C1=O (stereo not drawn) [Compound A-116]	70	90	100	60	70	90	100	60
CCc1cc(-c2ccc(Cl)c(Cl)c2)ccc1C1=C(OC(C)=O)C(C)(C)OC(C)(C)C1=O [Compound D-2]	100	30	90	20	80	70	90	40
CCc1cc(-c2cc(F)c(F)c(F)c2)ccc1C1=C(O)C(C)(COC)OC(C)(C)C1=O (stereo not drawn) [Compound A-114]	100	90	100	90	100	90	100	90
